{"source": "patent US20040097543A1", "about": "“Use of cyclic 2,4-diphosphoclycerates (cdgp) and/or derivatives thereof in cosmetic and dermatological formulations” (priority 2000, published 2004)", "key": {"[1]": {"experiment": "Solubility in water", "type": "physicochemical"}, "[2]": {"experiment": "Stability properties (chemical, physical, pH, light)", "type": "physicochemical"}, "[3]": {"experiment": "Half-life (hydrolysis)", "type": "physicochemical", "settings": "T = 120° C."}, "[4]": {"system": "LDH", "experiment": "Stabilization when freezing protein solutions (LDH)", "type": "biochemical"}, "[5]": {"system": "enzymes", "experiment": "Protection against thermally induced denaturation of enzymes", "type": "biochemical", "settings": "in comparison with a number of other compatible solutes far and decidedly better"}}}
{"smiles": "O=C(O)[C@H]1COP(=O)(O)OP(=O)(O)O1", "note": "[Cyclic diphosphoglycerate, cyclic diphosphoglycerate]", "values": [{"measurement": "solubility in water", "setting": "[1]", "result": "Excellent"}, {"measurement": "chemical and physical stability", "setting": "[2]", "result": "High"}, {"measurement": "half-life", "setting": "[3]", "result": 150, "unit": "h"}, {"measurement": "stabilizing properties when freezing protein solutions (LDH)", "setting": "[4]", "result": "good stabilizing properties"}, {"measurement": "protective effect in respect of the thermally induced denaturation of enzymes", "setting": "[5]", "result": "excellent"}]}
